Results as given in patent publication US9296720B2, “Carboxamide-substituted heteroaryl-pyrazoles and the use thereof” (AiCuris GmbH & Co. KG, priority 2011, dated 2016).
Like-named read-outs stand apart in the source and are kept apart here.

Legend:
Format in all cases: cell-based
HIV-1NL4-3 K103N-Y181C = experiment: Luminescence reduction assay, MT4 cells infected with HIV-1NL4-3 luciferase reporter virus, RT mutant K103N-Y181C
Outline: (§1)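 Compound dilution series in 1% DMSO, with 2% or 10% FCS, incubated 5 days at 37° C/5% CO2 with MT4 cells previously pellet-infected (2 h) by luciferase reporter NL4-3 virus, wild type or carrying RT resistance mutations. EC50 taken where luminescence from secreted luciferase falls to 50% of untreated infected control.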

HIV-1LAI Wild Type = experiment: AlamarBlue viability assay, HIV-1LAI-infected MT4 cells; conditions: 10% FCS
Outline: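 MT4 cells infected with HIV-1LAI (MOI 0.01, supernatant infection) cultured 5 days at 37 °C with compounds in RPMI with 2% or 10% FCS, 1% DMSO final. AlamarBlue fluorescence after 3 h; EC50 as 50% protection relative to uninfected cells, CC50 from high-concentration cytotoxicity.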

HIV-1NL4-3 Wild Type = experiment: Luminescence reduction assay, MT4 cells infected with HIV-1NL4-3 luciferase reporter virus, wild type; conditions: 2% FCS
Outline: as §1

[1] = Human immunodeficiency virus 1, MT4, read-out: EC50 (μM) MT4 Cells HIV-1NL4-3 K103N-Y181C 2% FCS, MT4 cells, HIV-1NL4-3 K103N-Y181C, 2% FCS
[2] = Human immunodeficiency virus 1, MT4, MT4 cells

Row | SMILES | EC50 (HIV-1NL4-3 K103N-Y181C; [1]) [µM] | EC50 (HIV-1LAI Wild Type; [2]) [µM] | EC50 (HIV-1NL4-3 Wild Type; [2]) [µM] | EC50 (HIV-1NL4-3 K103N-Y181C; read-out: EC50 (μM) MT4 Cells HIV-1NL4-3 K103N-Y181C 2% FCS, MT4 cells, HIV-1NL4-3 K103N-Y181C, 2% FCS) [µM] | EC50 (HIV-1LAI Wild Type; MT4 cells) [µM] | EC50 (HIV-1NL4-3 Wild Type; MT4 cells) [µM]
1 | O=C1CN(C(=O)c2cc(-c3cc(F)cc(OC(F)F)c3)n(-c3cccnc3)n2)CCN1 [Example 67] | 0.721 | 0.641 | 0.051 | – | – | –
2 | O=C(c1cc(-c2cc(Br)cc(OC(F)(F)F)c2)n(-c2ccnc(C(F)(F)F)c2)n1)N1CCSC1 [Example 117, {5-[3-Bromo-5-(trifluoromethoxy)phenyl]-1-[2-(trifluoromethyl)pyridin-4-yl]-1H-pyrazol-3-yl}(1,3-thiazolidin-3-yl)methanone] | ≥ 3.3 | > 3.3 | 1.28 | – | – | –
3 | O=C(c1cc(-c2cc(Br)cc(OC(F)(F)F)c2)n(-c2ccc(Cl)nc2)n1)N1CCS(=O)(=O)C1 [Example 38, {5-[3-Bromo-5-(trifluoromethoxy)phenyl]-1-(6-chloropyridin-3-yl)-1H-pyrazol-3-yl}(1,1-dioxido-1,3-thiazolidin-3-yl)methanone] | 0.007 | 1.22 | 0.023 | – | – | –
4 | O=C1CN(C(=O)c2cc(-c3cncc(C(F)(F)F)c3)n(-c3cccc(Cl)c3)n2)CCN1 [Example 109, 4-({1-(3-Chlorophenyl)-5-[5-(trifluoromethyl)pyridin-3-yl]-1H-pyrazol-3-yl}carbonyl)piperazin-2-one] | 0.768 | 0.246 | 0.232 | – | – | –
5 | O=C1CN(C(=O)c2cc(-c3cc(Br)cc(OC(F)(F)F)c3)n(-c3ccc(Cl)nc3)n2)CCN1 [Example 35, 4-({5-[3-Bromo-5-(trifluoromethoxy)phenyl]-1-(6-chloropyridin-3-yl)-1H-pyrazol-3-yl}carbonyl)piperazin-2-one] | 0.01 | 0.232 | 0.042 | – | – | –
6 | COc1cc(OC(F)(F)F)cc(-c2cc(C(=O)N3CNC(=O)C3)nn2-c2ccnc(Cl)c2)c1 [Example 86, 1-({1-(2-Chloropyridin-4-yl)-5-[3-methoxy-5-(trifluoromethoxy)phenyl]-1H-pyrazol-3-yl}carbonyl)imidazolidin-4-one] | 0.011 | 0.065 | 0.014 | – | – | –
7 | O=C1CN(C(=O)c2cc(-c3cc(F)cc(Br)c3)n(-c3ccnc(Cl)c3)n2)CCN1 [Example 93, 4-{[5-(3-Bromo-5-fluorophenyl)-1-(2-chloropyridin-4-yl)-1H-pyrazol-3-yl]carbonyl}piperazin-2-one] | 0.256 | 0.137 | 0.016 | – | – | –
8 | O=C1CN(C(=O)c2cc(-c3cc(F)cc(Cl)c3)n(-c3ccnc(Cl)c3)n2)CCN1 [Example 15, 4-{[5-(3-Chloro-5-fluorophenyl)-1-(2-chloropyridin-4-yl)-1H-pyrazol-3-yl]carbonyl}piperazin-2-one] | 0.452 | 0.151 | 0.018 | – | – | –
9 | COc1cc(Br)cc(-c2cc(C(=O)N3CCNC(=O)C3)nn2-c2ccnc(Cl)c2)c1 [Example 97, 4-{[5-(3-Bromo-5-methoxyphenyl)-1-(2-chloropyridin-4-yl)-1H-pyrazol-3-yl]carbonyl}piperazin-2-one] | 0.116 | 0.068 | 0.013 | – | – | –
10 | O=C(c1cc(-c2cc(F)cc(Cl)c2)n(-c2ccnc(C(F)(F)F)c2)n1)N1CC[S+]([O-])C1 (stereo not drawn) [Example 19, {5-(3-Chloro-5-fluorophenyl)-1-[2-(trifluoromethyl)pyridin-4-yl]-1H-pyrazol-3-yl}(1-oxido-1,3-thiazolidin-3-yl)methanone] | > 3.3 | 2.5 | 0.152 | – | – | –
11 | O=C(c1cc(-c2cc(F)cc(OC(F)(F)F)c2)n(-c2ccnc(Cl)c2)n1)N1CC[S+]([O-])C1 (stereo not drawn) [Example 64, {1-(2-Chloropyridin-4-yl)-5-[3-fluoro-5-(trifluoromethoxy)phenyl]-1H-pyrazol-3-yl}(1-oxido-1,3-thiazolidin-3-yl)methanone] | 0.771 | 1.55 | 0.103 | – | – | –
12 | O=C1CN(C(=O)c2cc(-c3cncc(C(F)(F)F)c3)n(-c3cccc(Cl)c3)n2)CN1 [Example 108, 1-({1-(3-Chlorophenyl)-5-[5-(trifluoromethyl)pyridin-3-yl]-1H-pyrazol-3-yl}carbonyl)imidazolidin-4-one] | 0.093 | 0.036 | 0.052 | – | – | –
13 | O=C(c1cc(-c2cc(Br)cc(OC(F)(F)F)c2)n(-c2cccnc2)n1)N1CC[S+]([O-])C1 (racemic) [Example 31-2, {5-[3-Bromo-5-(trifluoromethoxy)phenyl]-1-(pyridin-3-yl)-1H-pyrazol-3-yl}(1-oxido-1,3-thiazolidin-3-yl)methanone] | – | – | – | 0.041 | 0.336 | 0.01
14 | COc1cncc(-c2cc(C(=O)N3CCNC(=O)C3)nn2-c2ccc(F)c(Cl)c2)c1 [Example 103, 4-{[1-(3-Chloro-4-fluorophenyl)-5-(5-methoxypyridin-3-yl)-1H-pyrazol-3-yl]carbonyl}piperazin-2-one] | 0.375 | 0.785 | 0.205 | – | – | –
15 | O=C(c1cc(-c2cc(Br)cc(OC(F)(F)F)c2)n(-c2ccc(F)nc2)n1)N1CCSC1 [Example 41, {5-[3-Bromo-5-(trifluoromethoxy)phenyl]-1-(6-fluoropyridin-3-yl)-1H-pyrazol-3-yl}(1,3-thiazolidin-3-yl)methanone] | 0.087 | 0.991 | 0.042 | – | – | –
16 | O=C(c1cc(-c2cc(Br)cc(OC(F)(F)F)c2)n(-c2ccnc(C(F)(F)F)c2)n1)N1CC[S+]([O-])C1 (stereo not drawn) [Example 51, {5-[3-Bromo-5-(trifluoromethoxy)phenyl]-1-[2-(trifluoromethyl)pyridin-4-yl]-1H-pyrazol-3-yl}(1-oxido-1,3-thiazolidin-3-yl)methanone] | 1.05 | 1.93 | 0.249 | – | – | –
17 | O=C(c1cc(-c2cc(Cl)cc(OC(F)(F)F)c2)n(-c2cccnc2)n1)N1CC[S+]([O-])C1 (racemic) [Example 78, {5-[3-Chloro-5-(trifluoromethoxy)phenyl]-1-(pyridin-3-yl)-1H-pyrazol-3-yl}(1-oxido-1,3-thiazolidin-3-yl)methanone] | 0.277 | 0.367 | 0.078 | – | – | –
18 | O=C(c1cc(-c2cc(Br)cc(OC(F)(F)F)c2)n(-c2cccnc2)n1)N1CCSC1 [Example 30, (5-[3-Bromo-5-(trifluoromethoxy)phenyl]-1-(pyridin-3-yl)-1H-pyrazol-3-yl) (1,3-thiazolidin-3-yl)methanone] | 0.181 | 0.794 | 0.033 | – | – | –
19 | COc1cncc(-c2cc(C(=O)N3CNC(=O)C3)nn2-c2ccc(F)c(Cl)c2)c1 [Example 102, 1-{[1-(3-Chloro-4-fluorophenyl)-5-(5-methoxypyridin-3-yl)-1H-pyrazol-3-yl]carbonyl}imidazolidin-4-one] | 0.022 | 0.111 | 0.026 | – | – | –
20 | O=C1CN(C(=O)c2cc(-c3cc(F)cc(OC(F)(F)F)c3)n(-c3cccnc3)n2)CN1 [Example 57, 1-({5-[3-Fluoro-5-(trifluoromethoxy)phenyl]-1-(pyridin-3-yl)-1H-pyrazol-3-yl}carbonyl)imidazolidin-4-one] | 0.05 | 0.183 | 0.016 | – | – | –
21 | COc1cc(Br)cc(-c2cc(C(=O)N3CNC(=O)C3)nn2-c2ccnc(Cl)c2)c1 [Example 96, 1-{[5-(3-Bromo-5-methoxyphenyl)-1-(2-chloropyridin-4-yl)-1H-pyrazol-3-yl]carbonyl}imidazolidin-4-one] | 0.02 | 0.016 | 0.004 | – | – | –
